20 compounds from ChEMBL document CHEMBL1208791, “Optimization of alpha-ketoamide based p38 inhibitors through modifications to the region that binds to the allosteric site” (Bioorg Med Chem Lett, 2010) can be followed below.

The nature of series [1]: Tmax in rat at 10 mg/kg, iv or 30 mg/kg, po. The following applies: in vivo. Type of series: ADME, organism-based.
Series [2] is described as follows: Cmax in rat at 10 mg/kg, iv or 30 mg/kg, po. Format: ADME, organism-based. To be noted: in vivo.
A short description of series [3]: Half life in rat at 10 mg/kg, iv or 30 mg/kg, po. Format: ADME, organism-based. The following applies: in vivo.
Series [4] is described as follows: Volume of distribution at steady state in rat at 10 mg/kg, iv or 30 mg/kg, po. Format: ADME, organism-based. The following applies: in vivo, read-out: Vdss.
Series [5] deals with T1, Mitogen-activated protein kinase 14 (Homo sapiens, UniProt Q16539). As to the kind of experiment: Inhibition of phospho-p38 alpha activity by ELISA.
T1 sequence (Q16539 whole entry): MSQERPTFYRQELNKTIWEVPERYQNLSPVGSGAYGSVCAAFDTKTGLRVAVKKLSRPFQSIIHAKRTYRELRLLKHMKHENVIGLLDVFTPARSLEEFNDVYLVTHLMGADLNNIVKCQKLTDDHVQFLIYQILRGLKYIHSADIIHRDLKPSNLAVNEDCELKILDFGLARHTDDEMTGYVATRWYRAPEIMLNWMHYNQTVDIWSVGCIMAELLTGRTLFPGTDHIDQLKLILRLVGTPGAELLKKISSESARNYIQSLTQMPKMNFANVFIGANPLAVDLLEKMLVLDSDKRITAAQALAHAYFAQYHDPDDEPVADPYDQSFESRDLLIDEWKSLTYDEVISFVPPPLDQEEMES
For series [6], the target named is T1, Mitogen-activated protein kinase 14. As to the kind of experiment: Inhibition of p38 alpha activity by ELISA. In general terms: ELISA stands for enzyme-linked immunosorbent assay.
Series [7] is described as follows: Oral bioavailability in rat at 30 mg/kg, po. The following applies: in vivo. Format: ADME, organism-based.
A short description of series [8]: AUC in rat at 10 mg/kg, iv or 30 mg/kg, po. Type of series: ADME, organism-based. To be noted: plasma.
A short description of series [9]: Clearance in rat at 10 mg/kg, iv or 30 mg/kg, po. Format: ADME, organism-based. The following applies: in vivo.
The subject of series [10] is THP-1. Nature of the series: Inhibition of LPS-induced […]-alpha-production in immortalized human THP1 cells. Format: functional, cell-based.
Series [11] relates to Blood. Nature of the series: Ex vivo inhibition of […]-alpha-production in human whole blood. Format: functional, tissue-based.

On to `COc1c(NC(=O)C(=O)c2ccc(OCCN3CCOCC3)c3ccccc23)cc(C(C)(C)C)cc1NS(C)(=O)=O` [ITX-5061 FREE BASE], for which the Tmax in series [1] was found to be 3 h. The highest level in series [2] (Cmax) was 1300 ng/mL. Besides, the half-life in series [3] was 3.5 h. Moreover, in series [4], the Vd stood at 5.2 L/kg. The IC50 stood at 38 nM in series [5] and 59 nM in [6]. Also, the bioavailability in series [7] worked out at 77%. This compound also displayed an AUC in series [8] of 14000 ng·h/mL. This compound also showed a clearance in series [9] of 26.7 mL/min/kg.

Consider `COc1ccc(C(C)(C)C)cc1NC(=O)C(=O)c1ccc(OCCN2CCOCC2)c2ccccc12`, for which, in [6], the IC50 is 250 nM. In other words, the sub-micromolar range.

In series [6], `COc1c(C#N)cc(C(C)(C)C)cc1NC(=O)C(=O)c1ccc(-c2ccc(F)nc2)c2ccccc12` yielded an IC50 of 190 nM.

Consider `COc1c(NC(=O)C(=O)c2ccc(Nc3ccncn3)c3ccccc23)cc(C(C)(C)C)cc1NS(C)(=O)=O`, for which the IC50 in series [5] turned out to be 1 nM; in series [6], 72 nM.

The compound `COc1c(C#N)cc(C(C)(C)C)cc1NC(=O)C(=O)c1ccc(-c2ccncc2)c2ccccc12` yielded an IC50 in series [6] of 60 nM. In other words, the double-digit nanomolar range.

Take `COc1c(C#N)cc(C(C)(C)C)cc1NC(=O)C(=O)c1ccc(OCCN2CCOCC2)c2ccccc12`: in series [1], the Tmax was 0.5 h. In series [2], the Cmax turned out to be 2400 ng/mL. The compound further gave a half-life in [3] of 9.8 h. Further, the Vd in series [4] stood at 4.9 L/kg. Besides, the IC50 in [6] was 42 nM. In series [7], the bioavailability turned out to be 57%. Further, the AUC in series [8] worked out at 15000 ng·h/mL. The clearance in series [9] was 18.3 mL/min/kg.

In turn, `COc1c(NC(=O)C(O)c2ccc(OCCN3CCOCC3)c3ccccc23)cc(C(C)(C)C)cc1NS(C)(=O)=O` (centres undefined) came in with an IC50 in series [6] of 390 nM.

Consider `CC(C)(C)c1cccc(NC(=O)C(=O)c2ccc(OCCN3CCOCC3)c3ccccc23)c1`, for which the IC50 is 310 nM in series [5] and 250 nM in series [6].

In turn, `N#Cc1cc(NC(=O)C(=O)c2ccc(OCCN3CCOCC3)c3ccccc23)cc(N2CCOCC2)c1` yielded an IC50 in series [6] of 28 nM.

Take `CNc1nccc(Nc2ccc(C(=O)C(=O)Nc3cc(C(C)(C)C)cc(NS(C)(=O)=O)c3OC)c3ccccc23)n1`: the IC50 in series [10] came to 8 nM; in series [5], 21 nM; in [11] it was 100 nM.

`COc1c(NC(=O)/C(=N/O)c2ccc(OCCN3CCOCC3)c3ccccc23)cc(C(C)(C)C)cc1NS(C)(=O)=O` showed an IC50 in series [6] of 200 nM. That is a sub-micromolar value.

Turning to `CC(C)(C)c1cc(C#N)cc(NC(=O)C(=O)c2ccc(OCCN3CCOCC3)c3ccccc23)c1`, the IC50 in series [6] worked out at 33 nM. Against the preceding compound, the IC50 is about 6.1-fold lower.

On to `COc1c(NC(=O)C(=O)c2ccc(Nc3ccncc3)c3ccccc23)cc(C(C)(C)C)cc1NS(C)(=O)=O`, for which the IC50 in series [5] stood at 2 nM; in [6] it was 25 nM.

For the compound `COc1c(C#N)cc(C(C)(C)C)cc1NC(=O)C(=O)c1ccc(-c2ccnc(C)c2)c2ccccc12`, it took 22 nM to reach half-maximal inhibition in [6] (IC50).

As to `COc1c(C#N)cc(C(C)(C)C)cc1NC(=O)C(=O)c1ccc(Nc2ccncc2)c2ccccc12`, the IC50 in [6] is 51 nM; in [11], 150 nM.

In the case of `COc1c(NC(=O)Cc2ccc(OCCN3CCOCC3)c3ccccc23)cc(C(C)(C)C)cc1NS(C)(=O)=O`, the IC50 worked out at 90 nM in series [5] and 190 nM in series [6].

As for `COc1c(NC(=O)C(=O)c2ccc(OCCN3CCOCC3)c3ccccc23)cc(C(C)(C)C)cc1C(=O)NC1CC1`, the IC50 in [5] amounted to 140 nM; in [6], 71 nM.

Regarding `COc1c(NC(=O)C(=O)c2ccc(Oc3ccnc(N4CCOCC4)n3)c3ccccc23)cc(C(C)(C)C)cc1NS(C)(=O)=O`, the results for the IC50 in series [5] and in series [6] were 13 nM and 38 nM, respectively.

On to `COc1c(C#N)cc(C(C)(C)C)cc1NC(=O)C(=O)c1ccc(-c2cccnc2)c2ccccc12`, for which, in series [6], it took 78 nM to reach half-maximal inhibition (IC50).

The compound `COc1c(Cl)cc(C(C)(C)C)cc1NC(=O)C(=O)c1ccc(OCCN2CCOCC2)c2ccccc12` had an IC50 in [6] of 70 nM.

One may read the Tmax as the time from dosing to the highest level. One may read the Cmax as the highest concentration seen after dosing. As a reminder, the half-life is how long it takes for the measured level to halve. High values mean slow loss, low ones fast loss. By IC50 is commonly meant the point on the concentration scale where inhibition reaches its midpoint. A higher IC50 goes with weaker potency in that assay. A word on the bioavailability: it is dose-corrected exposure relative to a reference, in per cent. A lower bioavailability goes with poor availability. The term AUC denotes concentration integrated over time. A high value points to high exposure.
